# Legend:
# Cbl-b [1] = target: T1, Cbl-b (Homo sapiens, UniProt Q13191); assay: Cbl-b Degradation Method A (FACS, anti-Cbl-b antibody staining); format: cell-based; conditions: Cbl-b-HiBit KI Jurkat Cells, incubated at least 20 hours
# T1 construct: Cbl-b-HiBit KI Jurkat Cells were purchased from Promega; host or cells: Cbl-b-HiBiT knock-in Jurkat cells
# Protocol: Cbl-b Degradation Method A
# Cbl-b-HiBit KI Jurkat Cells were purchased from Promega, and cell media consisted of RPMI 1640 with 10% FBS and 1% pen/strep. The cells were counted, measured for viability, and 100 μL of the cell solution was into 96 well flat bottom plates at a ratio of 290,000 cells per 100 μL. Compounds were dissolved in DMSO to make a 10 mM stock solution, which was diluted with cell media. 100 μL of the diluted compound mixture was added to the wells. The plate was incubated for at least 20 hours at 37° C. and 5% CO2. After incubation, the plate was shaken at 700-750 RMP for 15-30 minutes to ensure cells were removed from the wells. The wells were transferred to a 96-well v-bottom plate and spun for 2200 RPM for 3 minutes. The supernatant was removed, cells re-suspended in 100 μL of the fixative, and subsequently incubated at room temperature for 15 minutes. Afterwards, 150 μL of DPBS was added to each well, and the cells were centrifuged at 2500 RPM for 3 minutes. The supernatant was removed and the plate was chilled on ice for 2-3 minutes. While still on the ice, 100 μL of Perm III was added to each well, the wells mixed, and subsequently left on the ice for another 15 minutes. Afterwards, the plate was removed from the ice, 150 μL of DBPS was added to each well, and the cells centrifuged at 2700 RPM for 3 minutes. The supernatant was removed, and an additional 200 μL of was DPBS was added to each well, followed by centrifuging at 2700 RPM for 3 minutes, after which the supernatant was removed. The anti-Cbl-b antibody was diluted 1:200 in 1× Perm Wash buffer and 50 μL of the antibody mixture was added to each well and mixed. After addition, the plate was incubated for 35-45 minutes at room temperature. After incubation, 200 μL of DPBS was added to each wells, and the plate centrifuged at 2700 RPM for 3 minutes, followed by the removal of the supernatant. The washing step was repeated by adding 200 μL of DPBS to each wells followed by centrifuge at 2700 RPM for 3 minutes and removal of the supernatant. The a-Rabbit-AF488 antibody was diluted 1:1000 in Perm Wash buffer, 50 μL of the dilution added to each well, and mixed. After mixing, the plate was incubated for 30 minutes at room temperature in the dark. Subsequently, the supernatant was removed, and 200 μL of DBPS added to the cells, which were then centrifuged at 2900 RPM for 4 minutes. The supernatant was removed, and an additional 95 μL of DBPS was added to the wells and mixed. The cells were then transferred to a round bottom polypropylene plate and analyzed using FACS with the parameters below:
# The concentration of an exemplary compound that leads to half maximal degradation (DC50) as well as the maximum degradation observed (Dmax, conventionally expressed as a percentage of control) is shown below in Table 2.
# Cbl-b [2] = target: T1, Cbl-b; assay: Cbl-b Degradation Method B (Nano-Glo HiBiT lytic detection); format: cell-based; conditions: Cbl-b-HiBit KI Jurkat Cells, incubated at least 6-24 hours; for DC50: half maximal degradation, read-out: Cbl-b Degredation Method B IC50; for Dmax: maximum degradation observed, read-out: Cbl-b Degredation Method B Dmax (%)
# Outline: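 An 11-point, 3-fold compound dilution was applied for 6-24 hours to Jurkat cells carrying HiBiT-tagged endogenous Cbl-b. Lytic HiBiT luminescence quantified residual protein. Outputs are DC50 and Dmax relative to DMSO control.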
# T1 sequence (Q13191 whole entry): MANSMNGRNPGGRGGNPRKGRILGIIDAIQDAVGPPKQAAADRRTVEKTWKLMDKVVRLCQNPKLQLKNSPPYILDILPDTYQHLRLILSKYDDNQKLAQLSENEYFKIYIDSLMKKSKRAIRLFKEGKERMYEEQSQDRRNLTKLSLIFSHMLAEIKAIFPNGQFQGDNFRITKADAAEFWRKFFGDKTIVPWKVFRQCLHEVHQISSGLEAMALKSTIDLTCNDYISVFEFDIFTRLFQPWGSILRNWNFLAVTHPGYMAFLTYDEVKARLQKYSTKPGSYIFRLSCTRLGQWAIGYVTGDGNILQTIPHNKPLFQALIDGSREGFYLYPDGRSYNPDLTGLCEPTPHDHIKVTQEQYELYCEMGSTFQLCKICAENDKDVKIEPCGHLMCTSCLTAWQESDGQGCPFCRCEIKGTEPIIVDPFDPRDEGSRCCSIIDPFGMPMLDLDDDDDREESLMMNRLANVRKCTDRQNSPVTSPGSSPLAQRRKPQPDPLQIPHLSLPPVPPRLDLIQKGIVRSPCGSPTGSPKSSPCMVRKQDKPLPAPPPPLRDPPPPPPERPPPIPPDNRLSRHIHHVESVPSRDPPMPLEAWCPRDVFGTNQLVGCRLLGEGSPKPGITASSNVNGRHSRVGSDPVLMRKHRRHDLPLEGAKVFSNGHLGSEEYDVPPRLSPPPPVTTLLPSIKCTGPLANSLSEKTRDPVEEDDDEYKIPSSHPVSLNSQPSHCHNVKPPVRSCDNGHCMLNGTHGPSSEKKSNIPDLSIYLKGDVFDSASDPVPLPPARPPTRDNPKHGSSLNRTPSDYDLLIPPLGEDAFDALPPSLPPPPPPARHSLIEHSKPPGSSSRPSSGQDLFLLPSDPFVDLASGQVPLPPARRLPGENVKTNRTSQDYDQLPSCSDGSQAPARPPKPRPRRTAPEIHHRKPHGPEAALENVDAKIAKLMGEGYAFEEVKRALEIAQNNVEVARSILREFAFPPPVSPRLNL
Compound,"DC50 (Cbl-b [1]; half maximal degradation, read-out: Cbl-b Degredation Method A IC50) [nM]","Dmax (Cbl-b [1]; Jurkat, maximum degradation observed, read-out: Cbl-b Degredation Method A Dmax (%)) [%]",DC50 (Cbl-b [2]) [nM],Dmax (Cbl-b [2]) [%]
"Cc1cc(N2CCC(O[C@H]3CC[C@H](CN4CCN(Cc5cc6c(c(C(F)(F)F)c5)CN(c5cccc([C@]7(Cc8nncn8C)C[C@@H](C#N)C7)c5)C6=O)CC4)CC3)CC2)c(F)c2c1C(=O)N(C1CCC(=O)NC1=O)C2 (stereo partly shown) [Example 205, (1r,3r)-3-[(4-methyl-4H-1,2,4-triazol-3-yl)methyl]-3-(3-{1-oxo-6-[(4-{[(1r,4r)-4-({1-[2-(2,6-dioxopiperidin-3-yl)-4-fluoro-7-methyl-1-oxo-2,3-dihydro-1H-isoindol-5-yl]piperidin-4-yl}oxy)cyclohexyl]methyl}piperazin-1-yl)methyl]-4-(trifluoromethyl)-2,3-dihydro-1H-isoindol-2-yl}phenyl)cyclobutane-1-carbonitrile]",< 5,35 to 70,,
"Cn1cnnc1CC1(c2cccc(-n3cc4c(C(F)(F)F)cc(CN5CCC[C@H](CN6CCN(CC7CCN(c8ccc9c(c8F)CN(C8CCC(=O)NC8=O)C9=O)CC7)CC6(C)C)C5)cc4n3)c2)COC1 (stereo partly drawn) [Example 285, 3-(5-{4-[(3,3-dimethyl-4-{[(3S)-1-{[2-(3-{3-[(4-methyl-4H-1,2,4-triazol-3-yl)methyl]oxetan-3-yl}phenyl)-4-(trifluoromethyl)-2H-indazol-6-yl]methyl}piperidin-3-yl]methyl}piperazin-1-yl)methyl]piperidin-1-yl}-4-fluoro-1-oxo-2,3-dihydro-1H-isoindol-2-yl)piperidine-2,6-dione]",,,> 500,
"Cn1cnnc1CC1(c2cccc(N3Cc4c(cc(CN5CCN(CCCOc6ccc7c(c6)C(=O)N(C6CCC(=O)NC6=O)C7=O)CC5)cc4C(F)(F)F)C3=O)c2)COC1 (stereo not shown) [Example 47, 2-(2,6-dioxopiperidin-3-yl)-5-[3-(4-{[2-(3-{3-[(4-methyl-4H-1,2,4-triazol-3-yl)methyl]oxetan-3-yl}phenyl)-3-oxo-7-(trifluoromethyl)-2,3-dihydro-1H-isoindol-5-yl]methyl}piperazin-1-yl)propoxy]-2,3-dihydro-1H-isoindole-1,3-dione]",,,> 500,
"Cn1cnnc1CC1(c2cccc(-n3cc4c(C(F)(F)F)cc(CN5CCC[C@H](CN6CCC[C@H](OC7CCN(c8ccc9c(c8F)CN(C8CCC(=O)NC8=O)C9=O)CC7)C6)C5)cc4n3)c2)COC1 (stereo partly drawn) [Example 258, 3-[4-fluoro-5-(4-{[(3S)-1-{[(3S)-1-{[2-(3-{3-[(4-methyl-4H-1,2,4-triazol-3-yl)methyl]oxetan-3-yl}phenyl)-4-(trifluoromethyl)-2H-indazol-6-yl]methyl}piperidin-3-yl]methyl}piperidin-3-yl]oxy}piperidin-1-yl)-1-oxo-2,3-dihydro-1H-isoindol-2-yl]piperidine-2,6-dione]",,,> 500,
"Cn1cnnc1CC1(c2cccc(N3Cc4c(cc(CN5CCN(C[C@H]6CC[C@H](OC7CCN(c8ccc9c(c8Cl)CN(C8CCC(=O)NC8=O)C9=O)CC7)CC6)CC5)cc4C(F)(F)F)C3=O)c2)COC1 (stereo partly shown) [Example 24, 3-[4-chloro-1-oxo-5-(4-{[(1r,4r)-4-[(4-{[2-(3-{3-[(4-methyl-4H-1,2,4-triazol-3-yl)methyl]oxetan-3-yl}phenyl)-3-oxo-7-(trifluoromethyl)-2,3-dihydro-1H-isoindol-5-yl]methyl}piperazin-1-yl)methyl]cyclohexyl]oxy}piperidin-1-yl)-2,3-dihydro-1H-isoindol-2-yl]piperidine-2,6-dione]",,,< 5,> 70
"Cn1cnnc1CC1(c2cccc(N3Cc4c(cc(CN5CC(CC6CN(c7ccc8c(c7)C(=O)N(C7CCC(=O)NC7=O)C8=O)C6)C5)cc4C(F)(F)F)C3=O)c2)COC1 (stereo not shown) [Example 58, 2-(2,6-dioxopiperidin-3-yl)-5-{3-[(1-{[2-(3-{3-[(4-methyl-4H-1,2,4-triazol-3-yl)methyl]oxetan-3-yl}phenyl)-3-oxo-7-(trifluoromethyl)-2,3-dihydro-1H-isoindol-5-yl]methyl}azetidin-3-yl)methyl]azetidin-1-yl}-2,3-dihydro-1H-isoindole-1,3-dione]",,,> 500,
"CC(C)n1c(=O)n(C2CCC(=O)NC2=O)c2ccc(N3CCC(O[C@H]4CC[C@@H](CN5CCN(C[C@H]6CCCN(Cc7cc8c(c(C(F)(F)F)c7)CN(c7cccc(C9(Cc%10nncn%10C)COC9)c7)C8=O)C6)C(C)(C)C5)CC4)CC3)cc21 (stereo partly drawn) [Example 263, 3-[2-oxo-3-(propan-2-yl)-5-(4-{[(1r,4r)-4-[(3,3-dimethyl-4-{[(3S)-1-{[2-(3-{3-[(4-methyl-4H-1,2,4-triazol-3-yl)methyl]oxetan-3-yl}phenyl)-3-oxo-7-(trifluoromethyl)-2,3-dihydro-1H-isoindol-5-yl]methyl}piperidin-3-yl]methyl}piperazin-1-yl)methyl]cyclohexyl]oxy}piperidin-1-yl)-2,3-dihydro-1H-1,3-benzodiazol-1-yl]piperidine-2,6-dione]",,,< 5,> 70
"C[C@@H]1C[C@H](CN2CCC(CN3CCC(CN4CCN(c5ccc6c(c5)C(=O)N(C5CCC(=O)NC5=O)C6=O)CC4)CC3)CC2)CN(c2cc3c(c(C(F)(F)F)c2)CN(c2cccc(C4(Cc5nncn5C)COC4)c2)C3=O)C1 (stereo partly drawn) [Example 73, 2-(2,6-dioxopiperidin-3-yl)-5-[4-({1-[(1-{[(3R,5R)-5-methyl-1-[2-(3-{3-[(4-methyl-4H-1,2,4-triazol-3-yl)methyl]oxetan-3-yl}phenyl)-3-oxo-7-(trifluoromethyl)-2,3-dihydro-1H-isoindol-5-yl]piperidin-3-yl]methyl}piperidin-4-yl)methyl]piperidin-4-yl}methyl)piperazin-1-yl]-2,3-dihydro-1H-isoindole-1,3-dione]",,,5 to 50,35 to 70
"Cn1cnnc1CC1(c2cccc(N3Cc4c(cc(CN5CCC5CC5CCN(c6ccc7c(c6)C(=O)N(C6CCC(=O)NC6=O)C7=O)CC5)cc4C(F)(F)F)C3=O)c2)COC1 (stereo not shown) [Example 70, 2-(2,6-dioxopiperidin-3-yl)-5-{4-[(1-{[2-(3-{3-[(4-methyl-4H-1,2,4-triazol-3-yl)methyl]oxetan-3-yl}phenyl)-3-oxo-7-(trifluoromethyl)-2,3-dihydro-1H-isoindol-5-yl]methyl}azetidin-2-yl)methyl]piperidin-1-yl}-2,3-dihydro-1H-isoindole-1,3-dione]",,,> 500,
"Cn1cnnc1CC1(c2cccc(N3Cc4c(cc(CN5CCC(COCC6CCN(c7ccc8c(c7)C(=O)N(C7CCC(=O)NC7=O)C8=O)CC6)CC5)cc4C(F)(F)F)C3=O)c2)COC1 (stereo not shown) [Example 40, 2-(2,6-dioxopiperidin-3-yl)-5-(4-{[(1-{[2-(3-{3-[(4-methyl-4H-1,2,4-triazol-3-yl)methyl]oxetan-3-yl}phenyl)-3-oxo-7-(trifluoromethyl)-2,3-dihydro-1H-isoindol-5-yl]methyl}piperidin-4-yl)methoxy]methyl}piperidin-1-yl)-2,3-dihydro-1H-isoindole-1,3-dione]",,,> 500,
"Cn1cnnc1C[C@]1(c2cccc(N3Cc4c(cc(CN5CCC[C@H](CN6CCN(C[C@H]7CC[C@H](OC8CCN(c9ccc%10c(c9F)CN(C9CCC(=O)NC9=O)C%10=O)CC8)CC7)CC6)C5)cc4C(F)(F)F)C3=O)c2)C[C@@H](C#N)C1 (stereo partly drawn) [Example 168, (1r,3r)-3-[(4-methyl-4H-1,2,4-triazol-3-yl)methyl]-3-[3-(1-oxo-6-{[(3S)-3-[(4-{[(1r,4r)-4-({1-[2-(2,6-dioxopiperidin-3-yl)-4-fluoro-1-oxo-2,3-dihydro-1H-isoindol-5-yl]piperidin-4-yl}oxy)cyclohexyl]methyl}piperazin-1-yl)methyl]piperidin-1-yl]methyl}-4-(trifluoromethyl)-2,3-dihydro-1H-isoindol-2-yl)phenyl]cyclobutane-1-carbonitrile]",,,< 5,35 to 70

# Source: US20260184710A1, “CASITAS B-LINEAGE LYMPHOMA PROTOONCOGENE B (CBL-B) DEGRADING COMPOUNDS AND ASSOCIATED METHODS OF USE” (Arvinas Operations, Inc., priority 2022, published 2026)
